Test results published in patent publication US20260138990A1, “TRICYCLIC FUSED IMIDAZOLE COMPOUNDS AS CD38 MODULATORS AND USES THEREOF” (AEOVIAN PHARMACEUTICALS, INC., priority 2023, published 2026).

What was measured:
[1] = biological target: T1, human CD38 (Homo sapiens, UniProt P28907); assay: NAD+ cyclase activity assay with human recombinant CD38 protein (ε-NAD fluorescence); assay type: biochemical; details: 1.9 nM human CD38, substrate ε-NAD, 30 min preincubation, fluorescence 300/410 nm
T1 construct: purchased Bio-Techne GmbH AVI2404
T1 sequence (P28907 1-300): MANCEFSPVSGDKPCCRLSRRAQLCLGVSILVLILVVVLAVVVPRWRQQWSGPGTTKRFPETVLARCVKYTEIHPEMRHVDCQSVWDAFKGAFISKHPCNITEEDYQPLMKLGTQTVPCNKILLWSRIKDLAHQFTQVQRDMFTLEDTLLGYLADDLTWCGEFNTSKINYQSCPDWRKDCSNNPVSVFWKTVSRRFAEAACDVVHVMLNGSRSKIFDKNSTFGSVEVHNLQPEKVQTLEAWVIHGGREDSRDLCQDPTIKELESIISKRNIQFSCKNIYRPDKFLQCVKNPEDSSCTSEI
How it was run: (§1)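 Recombinant CD38 (0.6 nM mouse or 1.9 nM human) in 40 mM HEPES/NaOH pH 7.5, 250 mM sucrose, 0.01% Tween was preincubated with compound for 30 min at room temperature, then […] ε-NAD was added. Fluorescence (ex 300/em 410 nm) was read continuously. Slopes over the linear phase were normalised to enzyme and no-enzyme controls and fitted from 12-point, threefold dose-response curves.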

[2] = biological target: T2, mouse CD38 (Mus musculus, UniProt P56528); assay: NAD+ cyclase activity assay with mouse recombinant CD38 protein (ε-NAD fluorescence); assay type: biochemical; details: 0.6 nM mouse CD38, substrate ε-NAD, 30 min preincubation, fluorescence 300/410 nm
T2 construct: purchased Bio-Techne GmbH 4947-AC
T2 sequence (P56528 1-304): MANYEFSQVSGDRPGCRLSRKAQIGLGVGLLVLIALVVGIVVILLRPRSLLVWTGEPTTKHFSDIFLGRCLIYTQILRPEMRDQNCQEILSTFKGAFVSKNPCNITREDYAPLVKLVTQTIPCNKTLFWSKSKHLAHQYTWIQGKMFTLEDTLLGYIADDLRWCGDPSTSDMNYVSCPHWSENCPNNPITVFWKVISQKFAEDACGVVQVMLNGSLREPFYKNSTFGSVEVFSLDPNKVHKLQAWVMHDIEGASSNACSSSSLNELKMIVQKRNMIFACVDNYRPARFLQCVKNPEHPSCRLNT
How it was run: as §1

IC50 [1] [nM]	IC50 [2] [nM]	SMILES
30 to 100	1 to 10	O=C(N[C@H]1CCCC(F)(F)C1)c1ccc2c(c1)-c1cncn1CCO2 [Compound 117A, (S)—N-(3,3-Difluorocyclohexyl)-5,6-dihydrobenzo[f]imidazo[1,5-d][1,4]oxazepine-10-carboxamide]
< 30	1 to 10	O=C(Nc1ccc2scnc2c1)c1ccc2c(c1)-c1cncn1CCO2 [Compound 7A, N-(Benzo[d]thiazol-5-yl)-5,6-dihydrobenzo[f]imidazo[1,5-d][1,4]oxazepine-10-carboxamide]
100 to 1000	10 to 100	CC1COc2ccc(C(=O)N[C@@H]3CCCOC3)cc2-c2cncn21 (stereo partly drawn) [Compound 68A, 5-Methyl-N—((R)-tetrahydro-2H-pyran-3-yl)-5,6-dihydrobenzo[f]imidazo[1,5-d][1,4]oxazepine-10-carboxamide]
100 to 1000	10 to 100	O=C(N[C@@H]1CCCOC1)c1ccc2c(c1)-c1cncn1CCCO2 [Compound 26A, (R)—N-(Tetrahydro-2H-pyran-3-yl)-6,7-dihydro-5H-benzo[b]imidazo[5,1-d][1,5]oxazocine-11-carboxamide]
< 30	< 1	O=C(N[C@H]1CC[C@H](NCC(F)(F)F)CC1)c1cc(F)c2c(c1)-c1cncn1CCO2 [Compound 115A, 8-Fluoro-N-((1r,4r)-4-((2,2,2-trifluoroethyl)amino)cyclohexyl)-5,6-dihydrobenzo[f]imidazo[1,5-d][1,4]oxazepine-10-carboxamide]
30 to 100	1 to 10	CC1(F)CC(NC(=O)c2ccc3c(c2)-c2cncn2CCO3)C1 (centres unmarked) [Compound 136A, N-(3-Fluoro-3-methylcyclobutyl)-5,6-dihydrobenzo[f]imidazo[1,5-d][1,4]oxazepine-10-carboxamide]
100 to 1000	> 100	O=C(N[C@H]1CC[C@@H](NCCC(F)(F)F)CC1)c1ccc2c(c1)-c1cncn1CCO2 [Compound 111A, N-((1s,4s)-4-((3,3,3-Trifluoropropyl)amino)cyclohexyl)-5,6-dihydrobenzo[f]imidazo[1,5-d][1,4]oxazepine-10-carboxamide]
< 30	1 to 10	O=C(NC1CCCC(F)(F)C1)c1ccc2c(c1)-c1cncn1CCO2 (centres unmarked) [Compound 96A, N-(3,3-Difluorocyclohexyl)-5,6-dihydrobenzo[f]imidazo[1,5-d][1,4]oxazepine-10-carboxamide]
< 30	1 to 10	O=C(Nc1ccc2c(c1)OCC2)c1ccc2c(c1)-c1cncn1CCO2 [Compound 32A, N-(2,3-Dihydrobenzofuran-6-yl)-5,6-dihydrobenzo[f]imidazo[1,5-d][1,4]oxazepine-10-carboxamide]
< 30	1 to 10	O=C(Nc1cnc(OCCC(F)F)nc1)c1ccc2c(c1)-c1cncn1CCO2 [Compound 103A, N-(2-(3,3-Difluoropropoxy)pyrimidin-5-yl)-5,6-dihydrobenzo[f]imidazo[1,5-d][1,4]oxazepine-10-carboxamide]
< 30	1 to 10	COCCO[C@H]1CC[C@H](NC(=O)c2ccc3c(c2)-c2cncn2CCO3)CC1 [Compound 3A, N-((1r,4r)-4-(2-Methoxyethoxy)cyclohexyl)-5,6-dihydrobenzo[f]imidazo[1,5-d][1,4]oxazepine-10-carboxamide]
< 30	1 to 10	O=C(Nc1ccc(C(F)(F)F)nc1)c1ccc2c(c1)-c1cncn1CCO2 [Compound 10A, N-(6-(Trifluoromethyl)pyridin-3-yl)-5,6-dihydrobenzo[f]imidazo[1,5-d][1,4]oxazepine-10-carboxamide]
< 30	1 to 10	CN1CCOc2cc(NC(=O)c3ccc4c(c3)-c3cncn3CCO4)cnc21 [Compound 98A, N-(4-Methyl-3,4-dihydro-2H-pyrido[3,2-b][1,4]oxazin-7-yl)-5,6-dihydrobenzo[f]imidazo[1,5-d][1,4]oxazepine-10-carboxamide]
< 30	< 1	O=C(NC1CCC(F)(F)C1)c1ccc2c(c1)-c1cncn1CCO2 (centres unmarked) [Compound 66A, N-(3,3-Difluorocyclopentyl)-5,6-dihydrobenzo[f]imidazo[1,5-d][1,4]oxazepine-10-carboxamide]
< 30	< 1	CO[C@H]1CC[C@H](NC(=O)c2ccc3c(c2)-c2cncn2CCO3)CC1 [Compound 20A, N-((1r,4r)-4-Methoxycyclohexyl)-5,6-dihydrobenzo[f]imidazo[1,5-d][1,4]oxazepine-10-carboxamide]
100 to 1000	10 to 100	O=C(N[C@H]1CC[C@@H](N2CC(F)(F)C2)CC1)c1ccc2c(c1)-c1cncn1CCO2 [Compound 64A, N-((1s,4s)-4-(3,3-Difluoroazetidin-1-yl)cyclohexyl)-5,6-dihydrobenzo[f]imidazo[1,5-d][1,4]oxazepine-10-carboxamide]
30 to 100	1 to 10	O=C(N[C@@H]1CCCOC1)c1cc(F)c2c(c1)-c1cncn1CCO2 [Compound 130A, (R)-8-Fluoro-N-(tetrahydro-2H-pyran-3-yl)-5,6-dihydrobenzo[f]imidazo[1,5-d][1,4]oxazepine-10-carboxamide]
< 30	< 1	O=C(NC1CCC1(F)F)c1ccc2c(c1)-c1cncn1CCO2 (centres unmarked) [Compound 139A, N-(2,2-Difluorocyclobutyl)-5,6-dihydrobenzo[f]imidazo[1,5-d][1,4]oxazepine-10-carboxamide]
100 to 1000	> 100	O=C(N[C@H]1CC[C@@H](OCCC(F)(F)F)CC1)c1ccc2c(c1)-c1cncn1CCO2 [Compound 89A, N-((1s,4s)-4-(3,3,3-Trifluoropropoxy)cyclohexyl)-5,6-dihydrobenzo[f]imidazo[1,5-d][1,4]oxazepine-10-carboxamide]
< 30	10 to 100	O=C(Nc1cnc(N2CC(C(F)F)C2)nc1)c1ccc2c(c1)-c1cncn1CCO2 [Compound 124A, N-(2-(3-(Difluoromethyl)azetidin-1-yl)pyrimidin-5-yl)-5,6-dihydrobenzo[f]imidazo[1,5-d][1,4]oxazepine-10-carboxamide]
< 30	1 to 10	CS(=O)(=O)c1cncc(NC(=O)c2ccc3c(c2)-c2cncn2CCO3)c1 [Compound 22A, N-(5-(Methylsulfonyl)pyridin-3-yl)-5,6-dihydrobenzo[f]imidazo[1,5-d][1,4]oxazepine-10-carboxamide]
< 30	< 1	O=C(NC1CCC(F)(F)CC1)c1cc(Cl)c2c(c1)-c1cncn1CCO2 [Compound 137A, 8-Chloro-N-(4,4-difluorocyclohexyl)-5,6-dihydrobenzo[f]imidazo[1,5-d][1,4]oxazepine-10-carboxamide]
< 30	1 to 10	O=C(N[C@H]1CC[C@H](OCCCF)CC1)c1ccc2c(c1)-c1cncn1CCO2 [Compound 80A, N-((1r,4r)-4-(3-Fluoropropoxy)cyclohexyl)-5,6-dihydrobenzo[f]imidazo[1,5-d][1,4]oxazepine-10-carboxamide]
< 30	1 to 10	O=C(Nc1cnc(OCC(F)(F)F)nc1)c1ccc2c(c1)-c1cncn1CCO2 [Compound 109A, N-(2-(2,2,2-Trifluoroethoxy)pyrimidin-5-yl)-5,6-dihydrobenzo[f]imidazo[1,5-d][1,4]oxazepine-10-carboxamide]
> 1000	> 100	O=C(N[C@@H]1CCS(=O)(=O)C1)c1ccc2[nH]c(=O)c3cncn3c2c1 [Compound 12A, (R)—N-(1,1-Dioxidotetrahydrothiophen-3-yl)-4-oxo-4,5-dihydroimidazo[1,5-a]quinoxaline-8-carboxamide]

SMILES	IC50 [1] [nM]	IC50 [2] [nM]
O=C(N[C@H]1CC[C@@H](OC2CC(F)(F)C2)CC1)c1cc(Cl)c2c(c1)-c1cncn1CCO2 [Compound 173A, N-((1s,4s)-4-(3,3-difluorocyclobutoxy)cyclohexyl)-8-chloro-5,6-dihydrobenzo[f]imidazo[1,5-d][1,4]269xazepane-10-carboxamide]	100 to 1000	10 to 100
O=C(N[C@H]1CC[C@H](O[C@H]2C[C@H](F)C2)CC1)c1ccc2c(c1)-c1cncn1CCO2 [Compound 148A, N-((1r,4r)-4-((1r,3r)-3-Fluorocyclobutoxy)cyclohexyl)-5,6-dihydrobenzo[f]imidazo[1,5-d][1,4]oxazepine-10-carboxamide]	< 30	1 to 10
O=C(N[C@H]1CC[C@H](OC2CC(F)(F)C2)CC1)c1cc(Cl)c2c(c1)-c1cncn1CCO2 [Compound 172A, N-((1r,4r)-4-(3,3-difluorocyclobutoxy)cyclohexyl)-8-chloro-5,6-dihydrobenzo[f]imidazo[1,5-d][1,4]oxazepine-10-carboxamide]	< 30	1 to 10
